# Measured values reported in patent US6514998B1 (priority 1994, dated 2003).
# Columns and labels:
# [1] = system: Pyricularia oryzae; type: in vivo; conditions: application rate 250 ppm; rice seedlings (Tai Nong 67) sprayed 24 h before infection; 6 days; untreated plants 70% attack
# [2] = system: Botrytis cinerea; conditions: application rate 500 ppm; paprika seedlings (Neusiedler Ideal Elite) sprayed before infection; 5 days; untreated plants 80% attack
# [3] = system: Fusarium culmorum; experiment: Activity against Fusarium culmorum on wheat seedlings; type: in vivo; conditions: application rate 500 ppm; wheat seedlings (Kanzler) sprayed one day before infection; 6 days; untreated plants 60% attack
# Procedure: On the following day, the plants were infected with a spore suspension of Fusarium culmorum. The plants treated in this way were incubated for 6 days at 22-24° C. and a relative atmospheric humidity of >90%. Assessment was carried out visually.
structure (smiles),measurement,setting,value
COC(=O)N(OC)c1ccccc1COc1ncn(-c2ccccc2)n1 [Compound 2],attack (visual assessment),[1],3%
same,attack (visual assessment),[2],5%
same,attack (visual assessment),[3],5%
